The values below come from US20250163459A1, “IMPROVED CELL LINES AND METHODS FOR THE PRODUCTION OF ADENO-ASSOCIATED VECTORS” (CEVEC PHARMACEUTICALS GMBH, priority 2022, published 2025).

What all share (format): cell-based, human
Test [1] relates to CAP cell line. Put plainly: Viable cell density and viability of induced AAV producer cells. Particulars: for viable cell density and viability: induced AAV producer cells, versus untreated cells, Camptothecin 10 μM. On the procedure:
During routine cultivation, cells were diluted with fresh medium to a viable cell density of 0.5-1×10^6 cells/ml every 72 to 96 h. Viable cell density and viability were determined by trypan blue exclusion using a Vi-Cell Blu cell counter (Beckman Coulter).
• Various stable and transient AAV producer cells were induced with doxycycline and treated with different concentrations of the antiapoptotic pan-caspase inhibitor Z-VAD-fmk. • Cell viability was evaluated using the NucleoCounter NC-3000.

Test [2] has as its system CAP cells. Put plainly: Sub-G1 DNA fragmentation assay (Chemometec, NucleoCounter NC-3000). Particulars: during vector production; Camptothecin 10 μM over night on parental CAP cells. The source says:
A DNA fragmentation assay by Chemometec was applied using the NucleoCounter® NC-3000™ according to note No. 3003. Rev. 1.4.
In brief, cells were permeabilized with Ethanol, which allows low molecular weight DNA fragments (e.g., apoptotic DNA) to leak out, while large fragments and undamaged chromosomes are retained inside the nucleus. Total DNA content was stained by DAPI and detected using the NucleoCounter® NC-3000™. Here, cells typically fall into one of three clusters when plotted by signal intensity. The G1 peak represents the majority of cells with 2n DNA content. A second, smaller peak represents cells in G2 phase of the cell cycle, containing 4n. […]
(§1) • Z-VAD-fmk inhibits caspases 3 and 8 which are upstream of the apoptotic nucleases DFF40 and ENDOG, respectively. • Z-VAD-fmk treatment should therefore reduce chromosomal fragmentation and decrease amount of packageably sized AAV cargo. • Transiently transfected CAP cells and HEK293 cells or full producers were cultured to produce AAV in the presence of absence of Z-VAD-fmk. • Resulting AAV particles were harvested from cell suspension on days 1, 2, 3, and 4 post induction. • Encapsidated host cell DNA was measured using a dedicated qPCR assay amplifying ALU repeats. • DNA fragmentation was determined using the DNA fragmentation assay by Chemometec.

Test [3] relates to CAP cells. Put plainly: Encapsidated host cell DNA in AAV particles, ALU qPCR, CAP-derived producer cells. The note with it: for encapsidated hcDNA: 30 μM and 60 μM, compared to vehicle treated controls (DMSO). On the procedure:
(§2) At different time points post transfection, cell suspension was harvested, and cells were lysed by addition of Triton-X 100 (Sigma). After centrifugation, supernatants were diluted and incubated with TurboDNase (ThermoFisher Scientific), in order to remove non-encapsidated DNA contaminants. After inactivation of TurboDNAse, proteinase K was added to digest the viral capsid and subsequently amplify viral genomic DNA or hcDNA via ddPCR or qPCR.
(§3) The following primer/dual-labelled probe combinations (ordered at MWG, Eurofins and IDT, respectively, Table 1) directed against • a) the SV40 PolyA (quantification of viral titer) or • b) Alu sequences (quantification of hcDNA) • were used:
(§4) As standard for the viral genome, linearized transgene plasmid with a defined copy number was used. As standard for the hcDNA assay previously isolated CAP and HEK293 DNA (purified with DNeasy® Blood & Tissue Kit) was used.
AAV samples were treated with Turbo DNAse (Thermo Fischer Scientific) to digest the non-encapsidated DNA before the capsids were digested using Proteinase K. Proteinase K was inactivated by a heating step at 95° C. for 15 min. The samples were measured either by qPCR or ddPCR as follows:
The qPCR reaction contained the following components: 2×Brilliant Multiplex qPCR Master Mix (Agilent), nuclease-free H2O (Thermo Fisher Scientific), primer/probe mix and sample/standard. qPCR was run on an LightCycler 480 according to the manufacturer's instructions.
as §1
On the technique in general: In qPCR the cycle at which signal appears reflects the starting amount.

The test system of test [4] is HEK293 cells. Put plainly: Encapsidated host cell DNA in AAV particles, ALU qPCR, HEK293 cells. The note with it: up to 40 μg/ml, compared to untreated controls, transient transfection. The method, then: as §2, §3, §4
AAV samples were treated with Turbo DNAse (Thermo Fischer Scientific) to digest the non-encapsidated DNA before the capsids were digested using Proteinase K. Proteinase K was inactivated by a heating step at 95° C. for 15 min. The samples were measured either by qPCR or ddPCR as follows: […]

Test [5] concerns stable producer cells. Put plainly: Capsid levels by ELISA. The note with it: in the presence of Z-VAD-fmk. The method, then: Inhibition of apoptotic DNA fragmentation reduces amount and packaging of hcDNA. • a) First page: sensitivity test for Sub-G1 DNA-fragmentation assay (Chemometec) using Camptothecin treatment (10 μM) on parental CAP cells over night. M1 population as % of global DNA stain. Second page: merged curves for apoptotic DNA fragmentation determined by same assay after 0 h (black curve), 18 h (dark grey), and 44 h (light grey), with Z-VAD-fmk (right) and in control samples (left, induction only) • b) First page: Relative share of encapsidated hcDNA [%] in transient and stable AAV8 production at 3 days post induction (transient transfection) and 5 days post induction (stable clone). […] Encapsidated hcDNA was measured in relation to the respective untreated controls, each set at 100%. Second page: fold difference of hcDNA concentration over time [hours] in an untreated AAV production using stable producer clone 1 (light grey line) normalized to 10 μg/ml of Z-VAD-fmk (dark grey line) determined by ALU qPCR. • c) First page: Relative Capsid levels determined by ELISA in stable producer clone 1 and transiently transfected HEK293 suspension cells at different Z-VAD-fmk concentrations and compared with Camptothecin. […] Second page: corresponding host cell DNA per capsid as determined by ALU qPCR normalized to untreated controls. […]
(ELISA stands for enzyme-linked immunosorbent assay.)

Test [6] relates to HEK293 cells. Put plainly: Endpoint PCR for detection of encapsidated hcDNA. Particulars: transiently transfected HEK293 wt cells, cargo 1 or cargo 3. The method, then:
Encapsidated hcDNA was prepared as described. PCR setup involved 3 μl sample as template for an endpoint PCR with 40 cylces using Q5 High-Fidelity DNA polymerase (NEB) according to the manufacturer's instructions. PCR samples were analyzed on a 2% agarose gel.

With `CC[C@@]1(O)C(=O)OCc2c1cc1n(c2=O)Cc2cc3ccccc3nc2-1` [Camptothecin], the “viable cell density and viability” value in test [1] was “reduced viability and VCD”. In test [2], the “amount of low molecular weight DNA (short DNA fragments)” value is given as “increase in short DNA fragments”.

Turning to `C[S+]([O-])c1ccc(-c2nc(-c3ccc(F)cc3)c(-c3ccncc3)[nH]2)cc1` (centres unmarked) [Adezmapimod, 4-(4-fluorophenyl)-2-(4-methylsulfinylphenyl)-5-(4-pyridyl)-1H-imidazole], the “encapsidated hcDNA” value in test [3] (stable inducible AAV producer cells, day 3 post induction) is listed as “reduced hcDNA encapsidation”; in test [3] (stable inducible AAV producer cells, day 3 post induction, listed as SB 203580), “reduces the encapsidated hcDNA”. For the same compound, the “reduction of encapsidated hcDNA” value in test [3] (60 μM, stable inducible AAV producer cells, compared to vehicle treated controls, day 3 post induction) is “more than 75%”.

On to “Z-Val-Ala-Asp fluoromethyl ketone [Z-VAD-fmk]”, for which the increase in viability in test [1] (80 h of treatment with 10 μg/ml, compared to untreated cells) is ~10 percentage points. Moreover, in test [1] (co-culturing, 10 μM Camptothecin+20 μM Z-VAD-fmk), the “compensation of Camptothecin-reduced viability and VCD” value was “could be compensated”. For the same compound, the “viable cell density and viability” value in test [1] was “increased viable cell density and viability”. In test [2], the “amount of low molecular weight DNA (short DNA fragments)” value is on record as “reduced the amount of low molecular weight DNA”. In addition, the “reduction in encapsidated hcDNA normalized to capsid levels” value in test [3] (stable producer cells, compared to controls) is ~10 fold. The “packaging of host cell DNA” value in test [3] (up to 40 μg/ml, compared to untreated controls, fully transient approach and full producers) is given as “dramatically decreased packaging of host cell DNA”; in test [4], “dramatically decreased packaging of host cell DNA”. The “capsid levels (ELISA)” value in test [5] was “slightly increased”. Also, in test [6], the “encapsidated hcDNA (genomic DNA sequence from HEK293 cells)” value is recorded as “undetectable”.
